Assay: Stability of the astaxanthin stereoisomer ratio (all-E form) in chloroform at 40° C., measured spectrophotometrically at 478 nm
Conditions: tempered at 40° C., stored, sampled periodically
Description: The solution was homogenized and the formulation was tempered at 40° C. The solution was stored and samples were taken periodically and the concentration of astaxanthin was measured spectrophotometrically at 478 nm.

Row | SMILES | stabilisation of the all-E-form / ratio of stereoisomers of astaxanthin (FIG. 1 and FIG. 2)
1 | CC(=O)[O-].[K+] [CH3COOK, potassium acetate] | stabilises the all-E-form better than K2CO3
2 | CC1=C(/C=C/C(C)=C/C=C/C(C)=C/C=C/C=C(C)/C=C/C=C(C)/C=C/C2=C(C)C(=O)[C@@H](O)CC2(C)C)C(C)(C)C[C@H](O)C1=O [astaxanthin] | the ratio is deteriorating usually

Source: patent US20160152540A1, “NEW PROCESS FOR THE MAINTAINING OF A RATIO OF ISOMERS OF CAROTENOID COMPOUNDS” (DSM IP ASSETS B.V., priority 2013, published 2016)
